Source: paper PMC10220648 (Viruses, 2023)
Where two headings read alike, the source gives them in different places.

Experiments:
LMHT gp120CRF01_AE coree = LMHT gp120CRF01_AE coree (Human immunodeficiency virus type 1, UniProt Q0ED31, DEL123-198/DEL305-311/DEL316-323/H375T/H60Y/I469M/K470R/N199G/N304G/N468D/P313S/Q104H/Q315S/T200G/V107I); test: biochemical; assay type: binding, HIV-1
HIV-1CH58TF = test: microbe, parasite or virus in culture; assay type: cell-based; conditions: TZM-bl cells, average ± SD of at least three independent experiments, read-out: Viral neutralization IC50, HIV-1CH58TF
[1] = system: HIV-1AD8-infected primary CD4+ T cells; test: HIV+ plasma cell-surface staining of infected cells; assay type: cell-based, human; conditions: 50µM compound; plasma 1:1000
[2] = system: HIV-1JRFL-infected primary CD4+ T cells; test: Anti-CoRBS 17b mAb binding to infected cells (flow cytometry); assay type: cell-based, human; conditions: 50 µM CD4mc; p24+ population; MFI
VSV-G pseudovirus = test: microbe, parasite or virus in culture; assay type: cell-based; conditions: TZM-bl, read-out: Viral neutralization IC50, VSV-G Pseudovirus
HIV-1AD8 = test: microbe, parasite or virus in culture; assay type: cell-based; conditions: TZM-bl cells, tier-2 virus, average ± SD of at least three independent experiments, read-out: Viral neutralization IC50, HIV-1AD8
[3] = system: HIV-1AD8-infected primary CD4+ T cells; test: FACS-based ADCC assay with HIV+ plasma; assay type: cell-based, human; conditions: 50µM compound; plasma 1/1000; effector/target 10:1
[4] = system: HIV-1CH58TF-infected primary CD4+ T cells; test: HIV+ plasma cell-surface staining of infected cells; assay type: cell-based, human; conditions: 50µM compound; plasma 1:1000
[5] = system: HIV-1CH58TF-infected primary CD4+ T cells; test: FACS-based ADCC assay with HIV+ plasma; assay type: cell-based, human; conditions: 50µM compound; plasma 1/1000; effector/target 10:1
[6] = system: HIV-1CH58TF-infected primary CD4+ T cells; test: Anti-CoRBS 17b mAb binding to infected cells (flow cytometry); assay type: cell-based, human; conditions: 50 µM CD4mc; p24+ population; MFI
HIV-1JRFL = assay type: cell-based; conditions: TZM-bl cells; tier-2 virus; average ± SD of at least three independent experiments
[7] = system: HIV-1JRFL-infected primary CD4+ T cells; test: HIV+ plasma cell-surface staining of infected cells; assay type: cell-based, human; conditions: 50µM compound; plasma 1:1000
[8] = system: HIV-1JRFL-infected primary CD4+ T cells; test: FACS-based ADCC assay with HIV+ plasma; assay type: cell-based, human; conditions: 50µM compound; plasma 1/1000; effector/target 10:1
[9] = Human immunodeficiency virus 1, TZM-bl

Structure (SMILES) | IC50 (LMHT gp120CRF01_AE coree) | IC50 (HIV-1CH58TF; [9]) | HIV+ plasma binding (recognition of infected cells), HIV-1AD8 [1] | 17b binding (exposure of the CoRBS), HIV-1JRFL-infected cells [2] | IC50 (VSV-G pseudovirus) | IC50 (HIV-1AD8; [9]) | Susceptibility to ADCC mediated by HIV+ plasma, HIV-1AD8 [3] | IC50 (HIV-1CH58TF) | HIV+ plasma binding (recognition of infected cells), HIV-1CH58TF [4] | IC50 (HIV-1AD8) | Susceptibility to ADCC mediated by HIV+ plasma, HIV-1CH58TF [5] | 17b binding (exposure of the CoRBS), HIV-1CH58TF-infected cells [6] | Viral neutralization IC50, HIV-1JRFL (HIV-1JRFL) | HIV+ plasma binding (recognition of infected cells), HIV-1JRFL [7] | Susceptibility to ADCC mediated by HIV+ plasma, HIV-1JRFL [8]
NCC(=O)N1CCN(C(=O)N2C[C@H](CO)C[C@H](C(=O)Nc3ccc(Cl)c(F)c3)C2)CC1 (racemic) [DL-I-101] | 0.308 µM | 0.16 ± 0.03 µM | did | successfully exposed the CoRBS | > 100 µM | 10.2 ± 3.1 µM | translated into ADCC |  |  |  |  |  |  |  | 
O=C(O)CN1CCN(C(=O)N2C[C@H](CO)C[C@H](C(=O)Nc3ccc(Cl)c(F)c3)C2)CC1 (racemic) [DL-I-102] | 0.561 µM | 0.66 ± 0.25 µM |  | successfully exposed the CoRBS | > 100 µM | 87 ± 39 µM |  |  |  |  |  |  |  |  | 
CNCc1ccc2c(c1)C[C@H](CNC(=N)N)[C@H]2NC(=O)C(=O)Nc1ccc(Cl)c(F)c1 [BNM-III-170, reference compound] |  | 0.0336 µM |  |  | > 100 µM | 3.75 µM |  | 0.033 ± 0.01 µM | enhanced the recognition | 3.75 ± 1.3 µM | enhanced |  |  |  | 
NCCNC(=O)N1CCC[C@H](C(=O)Nc2ccc(Cl)c(F)c2)C1 [MCG-IV-210, reference compound] | 0.969 µM | 3.46 ± 1.06 µM | did not promote HIV+ plasma binding | but not the tier-2 HIV-1JRFL | > 100 µM | > 100 µM |  |  | enhanced the recognition |  | enhanced | exposed the CoRBS | unable to inhibit viral infection |  | 
CN1CCN(C(=O)N2CCC[C@H](C(=O)Nc3ccc(Cl)c(F)c3)C2)CC1 [TFH-I-070-A6] |  | 0.45 ± 0.09 µM | did | successfully exposed the CoRBS | > 100 µM | 9.59 ± 3.4 µM |  |  |  |  |  |  |  |  | 
CC1CN(C(=O)N2CCCC(C(=O)Nc3ccc(Cl)c(F)c3)C2)CC(C)N1C (stereo not shown) [TFH-I-116-D1] |  | 0.0655 µM | did | successfully exposed the CoRBS | > 100 µM | 4.8 µM | translated into ADCC |  |  |  |  |  |  | recognized the infected cells | not translated into enhanced ADCC
CN1CCN(C(=O)N2C[C@H](CN)C[C@H](C(=O)Nc3ccc(Cl)c(F)c3)C2)CC1 [ZXC-I-090] |  | 2.63 ± 0.5 µM |  |  | > 100 µM | > 100 µM |  |  |  |  |  |  |  |  | 
C[C@@H]1CN(C(=O)N2C[C@H](CN)C[C@H](C(=O)Nc3ccc(Cl)c(F)c3)C2)C[C@H](C)N1C [ZXC-I-092] |  | 0.75 ± 0.12 µM |  | successfully exposed the CoRBS | > 100 µM | 34 ± 13.8 µM |  |  |  |  |  |  |  |  | 
